Counter-ions that a name gives are not always drawn. Like-named read-outs stand apart in the source and are kept apart here.
Key:
recombinant human CCR1 = molecular target: T1, recombinant human CCR1 (Homo sapiens, UniProt P32246); assay: Human CCR1 binding assay ([125I] MIP-1α displacement); details: displacement of 33 pM [125I] MIP-1α, HEK-CCR1 membranes
T1 construct: expressed in transfected cells; membranes
T1 sequence (P32246 1-355): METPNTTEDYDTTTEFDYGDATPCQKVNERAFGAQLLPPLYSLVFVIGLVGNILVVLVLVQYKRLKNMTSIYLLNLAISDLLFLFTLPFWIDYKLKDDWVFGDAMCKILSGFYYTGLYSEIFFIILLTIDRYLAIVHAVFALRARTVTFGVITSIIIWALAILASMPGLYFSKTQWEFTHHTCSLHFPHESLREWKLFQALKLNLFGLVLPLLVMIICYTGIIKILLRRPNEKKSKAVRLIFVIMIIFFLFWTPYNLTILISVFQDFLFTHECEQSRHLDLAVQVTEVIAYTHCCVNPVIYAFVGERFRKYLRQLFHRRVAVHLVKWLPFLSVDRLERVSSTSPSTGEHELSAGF
Method: HEK293 cells, from ECACC, stably expressing recombinant human CCR1 (HEK-CCR1) were used to prepare cell membranes containing CCR1. The membranes were stored at −70° C. The concentration of membranes of each batch was adjusted to 10% specific binding of 33 pM [^125I] MIP-1α.
100 μL of HEK-CCR1 membranes diluted in assay buffer pH 7.4 ((137 mM NaCl (Merck, Cat No 1.06404), 5.7 mM Glucose (Sigma, Cat No G5400), 2.7 mM KCl (Sigma, Cat No P-9333), 0.36 mM NaH2PO4×H2O (Merck, Cat No 1.06346), 10 mM HEPES (Sigma, Cat No H3375), 0.1% (w/v) Gelatine (Sigma, Cat No G2625)) with the addition of 17500 units/L Bacitracin (Sigma, Cat No B1025) were added to each well of the 96 well filter plate (0.45 μm opaque Millipore cat no MHVB N4550). 12 μL of compound in assay buffer, containing 10% DMSO, was added to give final compound concentrations of 1×10^−5.5−I×10^−9.5 M. 12 μL cold human recombinant MIP-1α (270-LD-050, R&D Systems, Oxford, UK), 10 nM final concentration in assay buffer supplemented with 10% DMSO, was included in certain wells (without compound) as non-specific binding control (NSB). 12 μL assay buffer with 10% DMSO was added to certain wells (without compound) to detect maximal binding (B0).
12 μL [^125I] MIP-1α, diluted in assay buffer to a final concentration in the wells of 33 pM, was added to all wells. The plates with lid were then incubated for 1.5 h at room temperature. After incubation the wells were emptied by vacuum filtration (MultiScreen Resist Vacuum Manifold system, Millipore) and washed once with 200 μL assay buffer. After the wash, all wells received an addition of […] of scintillation fluid (OptiPhase “Supermix”, Wallac Oy, Turko, Finland). Bound [^125I] MIP-1α was measured using a Wallac Trilux 1450 MicroBeta counter. Window settings: Low 5-High 1020, 1-minute counting/well.
The following equation was used to calculate percent displacement.
Percent displacement=1−((cpm test−cpm NSB)/(cpm B0−cpm NSB)) where:
cpm test=average cpm in wells with membranes and compound and [^125I] MIP-1α; NSB=average cpm in the wells with membranes and MIP-1α and [^125I] MIP-1α (non-specific binding); B0=average cpm in wells with membranes and assay buffer and [^125I] MIP-1α (maximum binding).
The molar concentration of compound producing 50% displacement (IC50) was derived using the Excel-based program XLfit (version 2.0.9) to fit data to a 4-parameter logistics function.

[1] = molecular target: T2, human ether-a-go-go-related-gene (hERG)-encoded potassium channel (Homo sapiens, UniProt Q12809); assay: hERG-encoded potassium channel binding assay; details: HEK 293 cell membranes expressing the IKR channel, radioligand binding; read-out: hERG binding concentration
T2 construct: expressed in transfected cells; host or cells: HEK 293 cell membranes
Method: This assay, which is described in full detail in example 2, WO2005037052, determines the ability of a test compound to bind to the human ether-a-go-go-related-gene (hERG)-encoded potassium channel. The assay comprises the following steps: a) incubation of HEK 293 cell membranes expressing the IKR channel in the presence of radioligand 3,7-bis[2-(4-nitro[3,5-^3H]phenyl)ethyl]-3,7-diazabicyclo[3.3.1]nonane, in the presence or absence of a test compound; b) quantitation of specifically bound labelled compound in the presence or absence of a test compound; c) calculation of the inhibition of labelled compound binding by the test compound. Similar protocols to determine affinity for the human ether-a-go-go-related-gene (hERG)-encoded potassium channel have been described by Finlayson, K. et al. [Eur. J. Pharmacol. 2001, 412, 203 and Eur. J. Pharmacol. 2001, 430, 147].

[2] = read-out: Result from assay: IC50
[3] = read-out: Result from assay: pIC50 (converted)

T2 sequence (Q12809 whole entry): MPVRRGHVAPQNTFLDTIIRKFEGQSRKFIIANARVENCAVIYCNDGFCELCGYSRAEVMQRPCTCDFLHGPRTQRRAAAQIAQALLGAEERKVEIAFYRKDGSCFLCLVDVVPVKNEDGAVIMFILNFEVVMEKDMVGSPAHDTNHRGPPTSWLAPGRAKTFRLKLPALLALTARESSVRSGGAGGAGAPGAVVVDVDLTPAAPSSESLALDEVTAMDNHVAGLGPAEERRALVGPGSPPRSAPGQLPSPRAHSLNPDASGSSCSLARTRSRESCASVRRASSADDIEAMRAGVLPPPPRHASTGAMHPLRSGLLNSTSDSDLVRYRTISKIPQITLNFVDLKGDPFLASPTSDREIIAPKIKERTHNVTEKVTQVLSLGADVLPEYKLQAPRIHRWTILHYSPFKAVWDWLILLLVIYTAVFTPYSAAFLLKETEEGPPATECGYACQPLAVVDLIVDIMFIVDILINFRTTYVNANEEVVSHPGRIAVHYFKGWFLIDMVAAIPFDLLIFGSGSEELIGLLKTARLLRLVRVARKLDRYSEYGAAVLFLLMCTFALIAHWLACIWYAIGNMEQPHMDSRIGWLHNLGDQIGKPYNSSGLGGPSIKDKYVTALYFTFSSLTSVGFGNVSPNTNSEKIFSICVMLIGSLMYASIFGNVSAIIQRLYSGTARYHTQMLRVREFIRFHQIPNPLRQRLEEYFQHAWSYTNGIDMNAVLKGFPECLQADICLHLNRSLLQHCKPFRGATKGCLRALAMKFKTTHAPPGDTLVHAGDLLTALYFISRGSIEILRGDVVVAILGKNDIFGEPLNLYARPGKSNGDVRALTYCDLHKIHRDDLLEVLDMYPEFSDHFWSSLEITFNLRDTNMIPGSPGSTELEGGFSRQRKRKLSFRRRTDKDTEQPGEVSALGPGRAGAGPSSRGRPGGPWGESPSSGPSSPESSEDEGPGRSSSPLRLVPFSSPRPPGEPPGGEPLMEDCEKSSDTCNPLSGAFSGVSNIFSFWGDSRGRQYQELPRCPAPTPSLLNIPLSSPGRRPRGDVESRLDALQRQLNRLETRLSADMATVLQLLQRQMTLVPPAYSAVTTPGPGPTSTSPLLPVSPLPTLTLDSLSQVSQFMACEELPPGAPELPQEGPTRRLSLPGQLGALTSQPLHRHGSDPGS

## CC(=O)Nc1ccc(OCC(=O)O)cc1OC[C@@H](O)CN1CCC2(CC1)Cc1cc(Cl)ccc1O2 [Example 2, (4-(acetylamino)-3-{[(2S)-3-(5-chloro-1′H,3H-spiro[1-benzofuran-2,4′-piperidin]-1′-yl)-2-hydroxypropyl]oxy}phenoxy)acetic acid]
Recombinant human CCR1; [2]
  IC50: 10 nM

## CNC(=O)c1cc(Cl)c(OC(C)(C)C(=O)O)cc1OC[C@@H](O)CN1CCC2(CC1)Cc1cc(Cl)ccc1O2 [Example 5, 2-[2-Chloro-5-{[(2S)-3-(5-chloro-1′H,3H-spiro[l-benzofuran-2,4′-piperidin]-1′-yl)-2-hydroxypropyl]oxy}-4-[(methylamino)carbonyl]-phenoxy}-2-methylpropanoic acid TFA]
Recombinant human CCR1; [2]
  IC50: 1.06 nM

## CNC(=O)c1cc(Cl)c(OCC(=O)O)cc1OC[C@@H](O)CN1CCC2(CC1)Cc1cc(Cl)ccc1O2 [Example 4]
Recombinant human CCR1; [2]
  IC50: 20.2 nM

## CC(=O)Nc1cc(Cl)c(OCC(=O)O)cc1OC[C@@H](O)CN1CCC2(CC1)Cc1cc(F)ccc1O2 [Example 3, (4-(acetylamino)-2-chloro-5-{[(2S)-3-(5-fluoro-1′H,3H-spiro[1-benzofuran-2,4′-piperidin]-1′-yl)-2-hydroxypropyl]oxy}phenoxy)acetic acid, hydrochloride]
Recombinant human CCR1; [3]
  IC50: 2.24 nM

## CNC(=O)c1cc(Cl)c(OC(C)(C)C(=O)O)cc1OC[C@@H](O)CN1CCC2(CC1)Cc1cc(Cl)cc(C(C)(C)C)c1O2 [Example 22, 2-[5-{[(2S)-3-(7-tert-Butyl-5-chloro-1′H, 3H-spiro[1-benzofuran-2,4′-piperidin]-1′-yl)-2-hydroxypropyl]oxy}-2-chloro-4-(methylcarbamoyl)phenoxy]-2-methylpropanoic acid]
Recombinant human CCR1; [2]
  IC50: 71.7 nM

## CNC(=O)c1cc(Cl)c(OC(C)(C)C(=O)O)cc1OCC(O)CN1CCC2(CC1)Cc1cc(Cl)ccc1O2 (racemic) [Example 21, 2-{2-Chloro-5-{3-(5-chloro-1′H 3H-spiro[1-benzofuran-2,4′-piperidin]-1′-yl)-2-hydroxypropyl]oxy}-4-dimethylamino)carbonyl]-phenoxy}-2-methyl-propanoic acid trifluoracetate]
Recombinant human CCR1; [2]
  IC50: 2.42 nM

## CN(C)C(=O)c1cc(Cl)c(OC(C)(C)C(=O)O)cc1OC[C@@H](O)CN1CCC2(CC1)Cc1cc(Cl)ccc1O2 [Example 19, 2-{2-Chloro-5-{[(2S)-3-(5-chloro-1′H, 3H-spiro[l-benzofuran-2,4′-piperidin]-1′-yl)-2-hydroxypropyl]oxy}-4-[(dimethylamino)carbonyl]-phenoxy}-2-methylpropanoic acid]
Recombinant human CCR1; [2]
  IC50: 1.6 nM

## CC(=O)Nc1cc(Cl)c(OCC(=O)O)cc1OC[C@@H](O)CN1CCC2(CC1)Cc1cc(Cl)ccc1O2 [Example 1, (4-(acetylamino)-2-chloro-5-{[(2S)-3-(5-chloro-1′H,3H-spiro[1-benzofuran-2,4′-piperidin]-1′-yl)-2-hydroxypropyl]oxy}phenoxy)acetic acid]
[1]
  IC50: > 30000 nM
Recombinant human CCR1; [3]
  IC50: 0.562 nM

## CN(C)C(=O)c1cc(Cl)c(OCC(=O)O)cc1OC[C@@H](O)CN1CCC2(CC1)Cc1cc(Cl)ccc1O2 [Example 18, {2-Chloro-5-{[(2S)-3-(5-chloro-1′H,3H-spirol[1-benzofuran-2,4′-piperidin]-1′-yl)-2-hydroxypropyl]oxy}-4-[(dimethylamino)carbonyl]phenoxy}acetic acid]
Recombinant human CCR1; [2]
  IC50: 11.4 nM

## CNC(=O)c1cc(Cl)c(OC(C)(C)C(=O)O)cc1OC[C@H](O)CN1CCC2(CC1)Cc1cc(Cl)ccc1O2 [Example 6, 2-{2-Chloro-5-{[(2R)-3-(5-chloro-1′H,3H-spiro[1-benzofuran-2,4′-piperidin]-1′-yl)-2-hydroxypropyl]oxy}-4-[(methylamino)carbonyl]phenoxy}-2-methylpropanoic acid]
Recombinant human CCR1; [2]
  IC50: 11 nM

## O=C(O)COc1cc(OC[C@@H](O)CN2CCC3(CC2)Cc2cc(Cl)ccc2O3)c(C(=O)N2CC[C@H](O)C2)cc1Cl [Example 20, (2-Chloro-5-{[(2S)-3-(5-chloro-1′H,3H-spiro[1-benzofuran-2,4′-piperidin]-1′-yl)-2-hydroxypropyl]oxy}-4-{[(3S)-3-hydroxypyrrolidin-1-yl]carbonyl}phenoxy)acetic acid]
Recombinant human CCR1; [2]
  IC50: 2.02 nM

— patent publication US20080167332A1, “Novel Compounds 243” (priority 2006, published 2008)
